Measurements as given in article PMC10934121 (Molecules, 2024).
Values joined by “and” are separate entries in the source; they are usually repeats but may differ in a detail not shown here. Equal values may be shown once.

What was measured:
[1] = Plasma and brain concentration after oral administration of 3-hydroxyindolin-2-one; format: in vivo, C57BL/6J mice; settings: 30 min after oral 3-hydroxyindolin-2-one 100, 200, 400 mg/kg
Experimental: (§1) All animal testing was performed with the European Communities Council Directive 2010/63/E.U. guidelines and approved by the Lithuania State Food and Veterinary Service, Animal Ethics Experimentation Committee (project G2-244). C57BL/6JRj mouse line animals (Janvier Labs, Le Genest-Saint-Isle, France) were used for all procedures. Before the experiment, animals were housed in groups under a 12 h light–dark cycle with a temperature of 21 ± 1 °C and humidity of 55 ± 10%. The experiment was conducted in 3 major phases (Figure 8).
Animals were starved for 1 h before the administration of the compounds. […] The animals then were housed in single cages and culled at different time points (30 min, 1 h, 2 h, 4 h, and 6 h). The organs were immediately extracted on ice and stored at –80 °C until further analysis. The inside of the intestines was cleaned before freezing. 3-Hydroxyindolin-2-one was administered by gavage at three doses (100 mg/kg, 200 mg/kg, and 400 mg/kg). The animals were culled 30 min after the administration. The organs were immediately removed on ice and stored at –80 °C until further analysis. […]
(§2) Organ extracts were analyzed by HPLC/MS as described in [20]. […] Limits of detection (LOD) for HPLC determination of the metabolite concentrations were determined by using different concentrations of standard solutions and following the same extraction protocol as described above.

acetylcholinesterase = settings: cited from earlier work
monoamine oxidase = settings: cited from earlier work
[2] = Detection of 13C isotope-carrying metabolites after oral stable isotope-carrying indole (HPLC/MS); format: in vivo, C57BL/6J mice; settings: 2 h after gavage of 13C (C2) indole; N = 1
Experimental: Since indole is produced endogenously by the gut microbiota from dietary compounds, it is possible that the metabolites identified in the organ extracts were produced from endogenous indole or other precursors rather than the exogenously supplied indole. […] We detected heavier isotopes of indolin-2-one and 3-hydroxyindolin-2-one in the brain, liver, cecum, small intestine, and colon 2 h after administration (Figure 4, Figures S1–S15). This confirmed the previous experiment and provided direct evidence that indole in the gut is a substrate for several metabolites that spread throughout the body and even to the brain.
as §1, with “The experiment was conducted in 3 major phases (Figure 8).” left out
as §2

[3] = Time-resolved concentrations of indole and its metabolites in organs after oral administration of indole (HPLC/MS); format: in vivo, C57BL/6J mice; settings: for Tmax: C57BL/6JRj, mouse, in vivo, 350 mg/kg
Experimental: as §1
Animals were starved for 1 h before the administration of the compounds. […] The animals then were housed in single cages and culled at different time points (30 min, 1 h, 2 h, 4 h, and 6 h). The organs were immediately extracted on ice and stored at –80 °C until further analysis. The inside of the intestines was cleaned before freezing. 3-Hydroxyindolin-2-one was administered by gavage at three doses (100 mg/kg, 200 mg/kg, and 400 mg/kg). The animals were culled 30 min after the administration. The organs were immediately removed on ice and stored at –80 °C until further analysis.
Organ samples were thawed, weighed, and homogenized (3 cycles ×30 s, using Benchmark the BeadBug 6 homogenizer, Sayreville, NJ, USA) in 1 mL of deionized water containing different concentrations of 1-methylindolin-2-one as an internal standard. Plasma samples were not homogenized and were subjected to liquid–liquid extraction directly. Organ homogenates were centrifuged at 16,000× g for 10 min at 4 °C. The supernatants were extracted three times with equal amounts of ethyl acetate. All three extracts were pooled and evaporated under reduced pressure (AES2000 SpeedVAC, Savant, Thermo Fisher Scientific, Waltham, MA, USA). The dried material was dissolved in 100 μL 50% methanol by vigorous shaking and centrifugation at 16,000× g for 5 min. The supernatant was subjected to HPLC/MS analysis.
as §2

CYP2E1 = experiment: Gene expression by real-time PCR after indole administration; format: in vivo, C57BL/6J mice; settings: liver
Experimental: as §1
(§3) The total RNA was isolated from the mice’s brain medulla and liver tissues using the TRIzol™ Plus RNA Purification Kit according to the manufacturer’s protocol (Thermo Fisher Scientific, Vilnius, Lithuania). To remove gDNA, samples were treated with dsDNase reagent (Thermo Fisher Scientific, Lithuania). cDNA was synthesized using a High-Capacity cDNA Reverse Transcription kit (Thermo Fisher Scientific, Lithuania) according to the manufacturer’s instructions. The expression of CYP1A2, CYP2E1, CYP2A5, CYP2C29, CBR1, CBR3, and GAPDH was analyzed by the QuantStudio™ 3 Real-Time PCR System (Thermo Fisher Scientific, Lithuania), using SYBR™ Green PCR Master Mix (Thermo Fisher Scientific, Lithuania). The following primer sequences were used: Cyp2c29_FW (5′-[…]-3′), Cyp2c29_RV (5′-[…]-3′), Cyp2a5_FW (5′-[…]-3′), Cyp2a5_RV (5′-[…]-3′), Cbr3_FW (5′-[…]-3′), Cbr3_RV (5′-[…]-3′), Cyp1a2_FW (5′-[…]-3′), Cyp1a2_RV (5′-[…]-3′), Cyp2e1_FW (5′-[…]-3′), Cyp2e1_RV (5′-[…]-3′), GAPDH_FW (5′-[…]-3′), GAPDH_RV (5′-[…]-3′), Cbr1_FW (5′-[…]-3′), Cbr1_RV (5′-[…]-3′). All samples were run in duplicates. Ct values were normalized to GAPDH using the delta–delta Ct method.

CYP1A2 = experiment: as above; format: in vivo, C57BL/6J mice; settings: liver, 1 h after indole administration, increasing with time
Experimental: as §1, §3

CBR1 = experiment: as above; format: in vivo, C57BL/6J mice
Experimental: as §1, §3

CBR3 = experiment: as above; format: in vivo, C57BL/6J mice; settings: for CBR3 expression increase: liver
Experimental: as §1, §3

[4] = cited from earlier work
[5] = parameters: method as in PMID 9572285; settings: cited from earlier work
[6] = 30 min after oral indole 350 mg/kg, individual mice (samples 1-2)
[7] = 30 min after oral indole 350 mg/kg, individual mice (samples 1-3)
[8] = 1 h after oral indole 350 mg/kg, individual mice (samples 1-3)
[9] = 2 h after oral indole 350 mg/kg, individual mice (samples 1-3)
[10] = 4 h after oral indole 350 mg/kg, individual mice (samples 1-3)
[11] = 6 h after oral indole 350 mg/kg, individual mice (samples 1-3)

Structure (SMILES): O=C1Nc2ccccc2C1O (stereo not shown) [3-hydroxyindolin-2-one, 3-hydroxy-1,3-dihydro-2H-indol-2-one]
- Concentration in brain [1]: significant dose-dependent increase
- Concentration in plasma [1]: significant dose-dependent increase
- Inhibitory effect on acetylcholinesterase compared to isatin (acetylcholinesterase): lower inhibitory effect
- Inhibitory effect on monoamine oxidase compared to isatin (monoamine oxidase): lower inhibitory effect
- Heavier (13C) isotope of metabolite in brain, liver, cecum, small intestine and colon [2]: detected
- Concentration in cecum extracts [3, 6]: 22.14 nmol/g and 29.66 nmol/g
- Concentration in brain extracts [3, 7]: 54.77 nmol/g and 76.19 nmol/g and 69.87 nmol/g
- Concentration in large intestine (LI) extracts [3, 7]: 45.32 nmol/g and 75.39 nmol/g and 41.71 nmol/g
- Concentration in liver extracts [3, 7]: 7.43 nmol/g and 14.12 nmol/g and 15.72 nmol/g
- Concentration in plasma [3, 7]: BDL
- Concentration in small intestine (SI) extracts [3, 7]: 76.51 nmol/g and 53.50 nmol/g and 66.77 nmol/g
- Concentration in brain extracts [3, 8]: 65.73 nmol/g and 37.10 nmol/g and 68.54 nmol/g
- Concentration in cecum extracts [3, 8]: 18.19 nmol/g and 12.89 nmol/g and 17.05 nmol/g
- Concentration in large intestine (LI) extracts [3, 8]: 30.45 nmol/g and 6.37 nmol/g and 58.67 nmol/g
- Concentration in liver extracts [3, 8]: 64.90 nmol/g and 46.68 nmol/g and 86.61 nmol/g
- Concentration in plasma [3, 8]: BDL
- Concentration in small intestine (SI) extracts [3, 8]: 52.78 nmol/g and 4.63 nmol/g and BDL
- Concentration in brain extracts [3, 9]: BDL
- Concentration in cecum extracts [3, 9]: 7.06 nmol/g and 19.80 nmol/g and 10.80 nmol/g
- Concentration in large intestine (LI) extracts [3, 9]: BDL
- Concentration in liver extracts [3, 9]: 63.22 nmol/g and BDL
- Concentration in plasma [3, 9]: BDL
- Concentration in small intestine (SI) extracts [3, 9]: BDL (2×) and 48.78 nmol/g
- Concentration in brain extracts [3, 10]: BDL
- Concentration in cecum extracts [3, 10]: 21.81 nmol/g and 17.61 nmol/g and BDL
- Concentration in large intestine (LI) extracts [3, 10]: BDL
- Concentration in liver extracts [3, 10]: 18.61 nmol/g and BDL and 6.72 nmol/g
- Concentration in plasma [3, 10]: BDL (2×) and 15.47 nmol/g
- Concentration in small intestine (SI) extracts [3, 10]: BDL (2×) and 24.91 nmol/g
- Concentration in brain extracts [3, 11]: BDL
- Concentration in cecum extracts [3, 11]: 35.22 nmol/g and BDL and 13.51 nmol/g
- Concentration in large intestine (LI) extracts [3, 11]: 18.68 nmol/g and BDL and 33.36 nmol/g
- Concentration in liver extracts [3, 11]: BDL
- Concentration in plasma [3, 11]: BDL
- Concentration in small intestine (SI) extracts [3, 11]: BDL
- Presence in the brain ([3]; after oral indole 350 mg/kg): found in the brain
- Time of highest concentrations in liver, small intestine and brain ([3]; after oral indole 350 mg/kg): 1 h

Structure (SMILES): c1ccc2[nH]ccc2c1 [Indole, indole]
- Concentration in cecum extracts [3, 6]: 37.54 nmol/g and 22.73 nmol/g
- Concentration in brain extracts [3, 7]: 59.54 nmol/g and 147.88 nmol/g and 22.10 nmol/g
- Concentration in large intestine (LI) extracts [3, 7]: 119.49 nmol/g and 137.49 nmol/g and 66.42 nmol/g
- Concentration in liver extracts [3, 7]: 156.1 nmol/g and 54.56 nmol/g and 3.21 nmol/g
- Concentration in plasma [3, 7]: 170.99 nmol/g and 96.67 nmol/g and 15.31 nmol/g
- Concentration in brain extracts [3, 8]: 4.75 nmol/g and BDL and 5.84 nmol/g
- Concentration in cecum extracts [3, 8]: 29.05 nmol/g and 32.96 nmol/g and 48.99 nmol/g
- Concentration in large intestine (LI) extracts [3, 8]: 4.64 nmol/g and 2.89 nmol/g and 70.74 nmol/g
- Concentration in liver extracts [3, 8]: BDL
- Concentration in plasma [3, 8]: 6.73 nmol/g and 0.00 nmol/g and 10.19 nmol/g
- Concentration in brain extracts [3, 9]: BDL
- Concentration in cecum extracts [3, 9]: 7.99 nmol/g and 0.00 nmol/g and 24.86 nmol/g
- Concentration in large intestine (LI) extracts [3, 9]: 2.89 nmol/g and 7.18 nmol/g and 278.22 nmol/g
- Concentration in liver extracts [3, 9]: 67.36 nmol/g and 3.05 nmol/g and 414.1 nmol/g
- Concentration in plasma [3, 9]: 0.00 nmol/g (2×) and 5.68 nmol/g
- Concentration in brain extracts [3, 10]: BDL and 1.41 nmol/g
- Concentration in cecum extracts [3, 10]: 0.00 nmol/g and 12.47 nmol/g
- Concentration in large intestine (LI) extracts [3, 10]: 30.39 nmol/g and 11.51 nmol/g and 34.93 nmol/g
- Concentration in liver extracts [3, 10]: 8.76 nmol/g and 0.00 nmol/g and 97.7 nmol/g
- Concentration in plasma [3, 10]: 0.00 nmol/g (2×) and 3.97 nmol/g
- Concentration in brain extracts [3, 11]: BDL
- Concentration in cecum extracts [3, 11]: 0.00 nmol/g
- Concentration in large intestine (LI) extracts [3, 11]: 171.66 nmol/g and 231.01 nmol/g and 24.29 nmol/g
- Concentration in liver extracts [3, 11]: 80.7 nmol/g and 58.6 nmol/g and BDL
- Concentration in plasma [3, 11]: 0.00 nmol/g
- Tmax ([3]; po, read-out: Time of peak plasma concentration (converted)): 30 min
- Presence in the brain ([3]; after oral indole 350 mg/kg): found in the brain
- Highest indole concentration (liver) ([3]; liver, 2 h after ingestion of indole 350 mg/kg): 414.15 nmol/g
- Time within which indole is metabolized ([3]; oral indole 350 mg/kg): up to 6 h
- CYP2E1 expression (CYP2E1): mainly unchanged
- CYP1A2 expression (CYP1A2): significant increase
- CBR1 expression (CBR1; liver and brain, any time point after indole administration): unaffected
- CBR1 expression level (CBR1; liver, after indole administration): not altered
- CBR3 expression (CBR3; brain, 2 h after indole administration): slight increase
- CBR3 expression increase (CBR3; 4 h after indole administration): 12 times
- CBR3 expression increase (CBR3; 6 h after indole administration): 8 times

Structure (SMILES): O=C1Cc2ccccc2N1 [Indolin-2-one, 1,3-dihydro-2H-indol-2-one]
- Blood–brain barrier crossing [4]: cross the blood–brain barrier
- Heavier (13C) isotope of metabolite in brain, liver, cecum, small intestine and colon [2]: detected
- Tmax ([3]; po): 30 min
- Effect of low doses in the blood ([5]; 10 mg/kg): reduced blood pressure and mild sedation
- Effect of high doses ([5]; 100 mg/kg): coma and death

Structure (SMILES): O=C1Nc2ccccc2C1=O [Isatin, 3-hydroxy-2H-indol-2-one]
- Isatin in the brain ([4]; after systemic administration): up to 5 nmol/g
- Blood–brain barrier crossing [4]: cross the blood–brain barrier
- Tmax [3]: 360 min
- Tmax ([3]; po): 30 min
